Source: paper PMC7288138, “Development of Novel Analogs of the Monocarboxylate Transporter Ligand FACH and Biological Validation of One Potential Radiotracer for Positron Emission Tomography (PET) Imaging” (Molecules, 2020)

Target: T1, MCT1 (monocarboxylate transporter 1) (Rattus norvegicus, UniProt P53987)
T1 construct: gene Slc16a1
T1 sequence (P53987 1-494): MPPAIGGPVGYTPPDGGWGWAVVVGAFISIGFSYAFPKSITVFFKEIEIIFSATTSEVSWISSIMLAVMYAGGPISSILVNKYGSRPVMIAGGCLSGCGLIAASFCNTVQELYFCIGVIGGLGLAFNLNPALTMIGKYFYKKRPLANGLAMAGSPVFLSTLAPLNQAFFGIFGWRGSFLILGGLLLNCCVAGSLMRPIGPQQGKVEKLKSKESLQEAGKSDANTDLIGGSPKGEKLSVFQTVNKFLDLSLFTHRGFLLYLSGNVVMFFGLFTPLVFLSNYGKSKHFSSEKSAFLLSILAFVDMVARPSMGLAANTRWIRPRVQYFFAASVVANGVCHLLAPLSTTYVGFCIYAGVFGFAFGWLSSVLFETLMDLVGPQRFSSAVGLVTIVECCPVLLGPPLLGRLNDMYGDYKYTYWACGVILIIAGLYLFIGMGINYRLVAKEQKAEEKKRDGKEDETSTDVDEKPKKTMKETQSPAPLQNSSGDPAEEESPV
Test: […]lactate uptake inhibition in RBE4 rat brain endothelial cells (only MCT1 isoform expressed)
Format: cell-based

SMILES | IC50 [nM]
CCCN(c1ccc(/C=C(\C#N)C(=O)O)c(OC)c1)c1cccc(F)n1 [compound 1, (E)-2-Cyano-3-(4-((6-fluoropyridin-2-yl)(propyl)amino)-2-methoxyphenyl)acrylic Acid] | 118
COc1cc(N(c2ccccc2)c2cccc(F)n2)ccc1/C=C(\C#N)C(=O)O [compound 2, (E)-2-Cyano-3-(4-((6-fluoropyridin-2-yl)(phenyl)amino)-2-methoxyphenyl)acrylic Acid] | 274
